Tested on: VACV
Type: cell-based, vaccinia virus
Settings: 100 pfu VACV, 48 HPI

Structure (SMILES): C=C(C)[C@@H]1CC[C@]2(C)CC[C@]3(C)[C@H](CC[C@@H]4[C@@]5(C)CC[C@H](O)C(C)(C)[C@@H]5CC[C@]43C)[C@@H]12 [lupeol]
- antiviral activity (VACV plaques): did not show suitable antiviral activity

From patent US20250262263A1, “METHOD AND COMPOSITIONS FOR THE USE OF BOTANICAL EXTRACTS IN THE TREATMENT OF VIRAL INFECTIONS” (priority 2024, published 2025)
